Data taken from US9453014B2, “Cyclic amide derivatives as inhibitors of 11-β-hydroxysteroid dehydrogenase and uses thereof” (CONNEXIOS LIFE SCIENCES PVT. LTD., priority 2011, dated 2016).
pIC50: −log10 of the molar value.

molecular target: T1, human full length HSD11 β 1 (Homo sapiens, UniProt P28845); assay: In Vitro HSD11β1 Inhibition Assay; type: cell-based; conditions: 11βHSD1 (IC50)
T1 construct: transient expression of human full length HSD11 β 1 expression vector; host or cells: CHO cells (transient transfection)
T1 sequence (P28845 whole entry): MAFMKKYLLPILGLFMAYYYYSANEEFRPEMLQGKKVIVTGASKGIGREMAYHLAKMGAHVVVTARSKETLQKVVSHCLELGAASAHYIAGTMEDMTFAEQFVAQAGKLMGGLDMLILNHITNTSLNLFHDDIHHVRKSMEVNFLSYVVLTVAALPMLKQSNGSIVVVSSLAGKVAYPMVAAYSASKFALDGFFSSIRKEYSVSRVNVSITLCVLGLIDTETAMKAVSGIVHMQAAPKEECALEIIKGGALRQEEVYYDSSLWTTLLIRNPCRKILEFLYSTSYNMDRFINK
Outline: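 CHO cells transiently transfected with human full-length HSD11β1 were re-seeded after 24 h and, 24 h later, incubated overnight with 200 nM cortisone plus 500 uM NADPH and inhibitor. Cortisone-to-cortisol conversion was measured by LC/MS-MS. IC50 from an 8-point log concentration–inhibition curve.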

Question: Cc1cccc2[nH]cc(C(=O)CC(=O)N3CCCC4CCCCC43)c12 (stereo not shown) [Compound 30, 1-(4-methyl-1H-indol-3-yl)-3-(octahydroquinolin-1(2H)-yl)propane-1,3-dione] was tested. Which pIC50 did it give?
Answer: < 6.60

same assay, conditions: CHO cells transiently expressing human HSD11β1; 200 nM cortisone+500 uM NADPH overnight; cortisone to cortisol by LC/MS-MS; read-out: 11βHSD1 (IC50)

Question: With CC(CC(=O)N1CCCC2CCCCC21)c1nc2c(Cl)cccc2s1 (stereo not shown) [Example 173, 3-(4-chloro-1,3-benzothiazol-2-yl)-1-(octahydroquinolin-1(2H)-yl)butan-1-one] as the compound, how does the pIC50 read?
Answer: > 7.00

Question: With CC(CC(=O)N1CCCC2C(C(=O)O)CCCC21)c1c[nH]c2cccc(-c3ccc(F)cc3)c12 (single isomer, unassigned) [Compound 255, 1-{3-[4-(4-fluorophenyl)-1H-indol-3-yl]butanoyl}decahydroquinoline-5-carboxylic acid] as the compound, how does the pIC50 read?
Answer: > 7.00

Question: CC(CC(=O)N1CCCC2CCCCC21)c1c[nH]c2ccccc12 (single isomer, unassigned) [Example 124, 3-(1H-indol-3-yl)-1-(octahydroquinolin-1(2H)-yl)butan-1-one] was tested. Which pIC50 did it give?
Answer: 6.82 to 7.00

Question: With CC12CCCCC1N(C(=O)CCc1nc3ccccc3s1)CCC2 (stereo not shown) [Example 78, 3-(1,3-benzothiazol-2-yl)-1-(4a-methyloctahydroquinolin-1(2H)-yl)propan-1-one] as the compound, how does the pIC50 read?
Answer: > 7.00

Question: How did the pIC50 turn out when O=C(Cc1c[nH]c2ccc(F)cc12)N1CCCC2CCCCC21 (stereo not shown) [Compound 10, 2-(5-fluoro-1H-indol-3-yl)-1-(octahydroquinolin-1(2H)-yl)ethanone] was run?
Answer: 6.82 to 7.00

Question: How did the pIC50 turn out when CC1(O)CCN(C(=O)CCc2c[nH]c3ccccc23)C2CCCCC21 (stereo not shown) [Compound 34, 1-(4-hydroxy-4-methyloctahydroquinolin-1(2H)-yl)-3-(1H-indol-3-yl)propan-1-one] was run?
Answer: < 6.60

Question: With O=C(O)C1CCN(C(=O)CC(c2cccs2)c2c[nH]c3cccc(Cl)c23)C2CCCCC12 (stereo not shown) [Example 184, 1-[3-(4-chloro-1H-indol-3-yl)-3-(thiophen-2-yl)propanoyl]decahydroquinoline-4-carboxylic acid] as the compound, how does the pIC50 read?
Answer: < 6.60

Question: How did the pIC50 turn out when CC(CC(=O)N1CCCC2C(C(=O)O)CCCC21)c1c[nH]c2cccc(-c3ccc(F)cc3)c12 (stereo not shown) [Compound 243, 1-{3-[4-(4-fluorophenyl)-1H-indol-3-yl]butanoyl}decahydroquinoline-5-carboxylic acid] was run?
Answer: > 7.00

Question: How did the pIC50 turn out when Cc1cccc2[nH]cc(CCC(=O)N3C(C)CCC4CCCCC43)c12 (stereo not shown) [Compound 35, 3-(4-methyl-1H-indol-3-yl)-1-(2-methyloctahydroquinolin-1(2H)-yl)propan-1-one] was run?
Answer: > 7.00

Question: How did the pIC50 turn out when CC(CC(=O)N1CCCC2(CO)CCCCC12)c1c[nH]c2nccc(Cl)c12 (stereo not shown) [Example 147, 3-(4-chloro-1H-pyrrolo[2,3-b]pyridin-3-yl)-1-[4a-(hydroxymethyl)octahydroquinolin-1(2H)-yl]butan-1-one] was run?
Answer: < 6.60

Question: How did the pIC50 turn out when CC(CC(=O)N1CCCC2C(C(=O)O)CCCC21)c1cn(C)c2cccc(Cl)c12 (stereo not shown) [Compound 209, 1-[3-(4-chloro-1-methyl-1H-indol-3-yl)butanoyl]decahydroquinoline-5-carboxylic acid] was run?
Answer: 6.70 to 6.82

Question: With CC(CC(=O)N1CCCC2C(C(=O)O)CCCC21)c1cn(C)c2cccc(-c3ccc(F)o3)c12 (stereo not shown) [Compound 263, 1-{3-[4-(5-fluorofuran-2-yl)-1-methyl-1H-indol-3-yl]butanoyl}decahydroquinoline-5-carboxylic acid] as the compound, how does the pIC50 read?
Answer: > 7.00

Question: How did the pIC50 turn out when CC(C)C(CC(=O)N1CCCC2CCCCC21)c1c[nH]c2ccccc12 (single isomer, unassigned) [Example 118, 3-(1H-indol-3-yl)-4-methyl-1-(octahydroquinolin-1(2H)-yl)pentan-1-one] was run?
Answer: > 7.00

Question: With CCn1cc(CCC(=O)N2CCCC3CCCCC32)c2c(C)cccc21 (stereo not shown) [Compound 33, 3-(1-ethyl-4-methyl-1H-indol-3-yl)-1-(octahydroquinolin-1(2H)-yl)propan-1-one] as the compound, how does the pIC50 read?
Answer: < 6.60

Question: How did the pIC50 turn out when O=C(CCc1c[nH]c2ccccc12)N1CC2CCCCC2C1 (stereo not shown) [Compound 42, 3-(1H-indol-3-yl)-1-(octahydro-2H-isoindol-2-yl)propan-1-one] was run?
Answer: < 6.60

Question: O=C(O)C1CCN(C(=O)CC(c2ccccc2)c2c[nH]c3cc(F)ccc23)C2CCCCC12 (single isomer, unassigned) [Example 159, 1-[3-(6-fluoro-1H-indol-3-yl)-3-phenylpropanoyl]decahydroquinoline-4-carboxylic acid] was tested. Which pIC50 did it give?
Answer: > 7.00

Question: How did the pIC50 turn out when O=C(O)C1CCCC2C1CCCN2C(=O)CC(c1cccs1)c1c[nH]c2cccc(Cl)c12 (stereo not shown) [Compound 206, 1-[3-(4-chloro-1H-indol-3-yl)-3-(thiophen-2-yl)propanoyl]decahydroquinoline-5-carboxylic acid] was run?
Answer: > 7.00

Question: With CC(C)C(CC(=O)N1CCOC2CCCCC21)c1c[nH]c2cccc(F)c12 (stereo not shown) [Example 135, 3-(4-fluoro-1H-indol-3-yl)-4-methyl-1-(octahydro-4H-1,4-benzoxazin-4-yl)pentan-1-one] as the compound, how does the pIC50 read?
Answer: < 6.60

Question: With CC(CC(=O)N1CCC(C(=O)O)C2CCCCC21)c1c[nH]c2nccc(Cl)c12 (stereo not shown) [Example 171, 1-[3-(4-chloro-1H-pyrrolo[2,3-b]pyridin-3-yl)butanoyl]decahydroquinoline-4-carboxylic acid] as the compound, how does the pIC50 read?
Answer: < 6.60

Question: How did the pIC50 turn out when O=C(CSc1nc2ccccc2s1)N1CCCC2CCCCC21 (stereo not shown) [Compound 73, 2-(1,3-benzothiazol-2-ylsulfanyl)-1-(octahydroquinolin-1(2H)-yl)ethanone] was run?
Answer: < 6.60

Question: With CC(CC(=O)N1CCCC2(O)CCCCC12)c1c[nH]c2ncccc12 (stereo not shown) [Example 148, 1-(4a-hydroxyoctahydroquinolin-1(2H)-yl)-3-(1H-pyrrolo[2,3-b]pyridin-3-yl)butan-1-one] as the compound, how does the pIC50 read?
Answer: < 6.60

Question: With Cc1cccc2c1nnn2C(CC(=O)N1CCCC2CCCCC21)C(C)C (stereo not shown) [Example 172, 4-methyl-3-(4-methyl-1H-benzotriazol-1-yl)-1-(octahydroquinolin-1(2H)-yl)pentan-1-one] as the compound, how does the pIC50 read?
Answer: < 6.60

Question: O=C(CCc1c[nH]c2ccc(F)cc12)N1CCCC2CCCCC21 (stereo not shown) [Compound 4, 3-(5-fluoro-1H-indol-3-yl)-1-(octahydroquinolin-1(2H)-yl)propan-1-one] was tested. Which pIC50 did it give?
Answer: 6.82 to 7.00

Question: With Cc1ccc(-c2cccc3[nH]cc(C(C)CC(=O)N4CCCC5C(C(=O)O)CCCC54)c23)o1 (stereo not shown) [Compound 236, 1-{3-[4-(5-methylfuran-2-yl)-1H-indol-3-yl]butanoyl}decahydroquinoline-5-carboxylic acid] as the compound, how does the pIC50 read?
Answer: 6.82 to 7.00

Question: With O=C(CCc1n[nH]c2ccccc12)N1CCCC2CCCCC21 (stereo not shown) [Example 88, 3-(1H-indazol-3-yl)-1-(octahydroquinolin-1(2H)-yl)propan-1-one] as the compound, how does the pIC50 read?
Answer: < 6.60

Question: With CC(CC(=O)N1CCC(C(=O)O)C2CCCCC21)c1nc2ccccc2s1 (stereo not shown) [Example 154, 1-[3-(1,3-benzothiazol-2-yl)butanoyl]decahydroquinoline-4-carboxylic acid] as the compound, how does the pIC50 read?
Answer: < 6.60

Question: How did the pIC50 turn out when COn1cc(C(C)CC(=O)N2CCCC3C(C(=O)O)CCCC32)c2c(C3CC3)cccc21 (stereo not shown) [Compound 241, 1-[3-(4-cyclopropyl-1-methoxy-1H-indol-3-yl)butanoyl]decahydroquinoline-5-carboxylic acid] was run?
Answer: < 6.60

Question: With CC(CC(=O)N1CCCC2C(C(=O)O)CCCC21)c1cn(C)c2cccc(C3CC3)c12 (single isomer, unassigned) [Compound 214, 1-[3-(4-cyclopropyl-1-methyl-1H-indol-3-yl)butanoyl]decahydroquinoline-5-carboxylic acid] as the compound, how does the pIC50 read?
Answer: > 7.00

Question: Cn1cc(CCC(=O)N2CCCC3CCCCC32)c2ccccc21 (stereo not shown) [Compound 13, 3-(1-methyl-1H-indol-3-yl)-1-(octahydroquinolin-1(2H)-yl)propan-1-one] was tested. Which pIC50 did it give?
Answer: > 7.00

Question: With CCOC(=O)C12CCCCC1N(C(=O)CC(C)c1c[nH]c3cccc(Cl)c13)CCC2 (stereo not shown) [Example 127, ethyl 1-[3-(4-chloro-1H-indol-3-yl)butanoyl]octahydroquinoline-4a(2H)-carboxylate] as the compound, how does the pIC50 read?
Answer: < 6.60

Question: How did the pIC50 turn out when Cc1cccc2c1nnn2C(CC(=O)N1CCC(C(=O)O)C2CCCCC21)C(C)C (stereo not shown) [Example 183, 1-[4-methyl-3-(4-methyl-1H-benzotriazol-1-yl)pentanoyl]decahydroquinoline-4-carboxylic acid] was run?
Answer: < 6.60

Question: With CC(Oc1c[nH]c2ccccc12)C(=O)N1CCCC2CCCCC21 (stereo not shown) [Compound 25, 2-(1H-indol-3-yloxy)-1-(octahydroquinolin-1(2H)-yl)propan-1-one] as the compound, how does the pIC50 read?
Answer: < 6.60

Question: O=C(CCc1c[nH]c2ccc(O)cc12)N1CCCC2CCCCC21 (stereo not shown) [Compound 15, 3-(5-hydroxy-1H-indol-3-yl)-1-(octahydroquinolin-1(2H)-yl)propan-1-one] was tested. Which pIC50 did it give?
Answer: 6.82 to 7.00

Question: With CC(CC(=O)N1CCCC2C(c3nnn[nH]3)CCCC21)c1c[nH]c2cccc(C3CC3)c12 (stereo not shown) [Compound 240, 3-(4-cyclopropyl-1H-indol-3-yl)-1-[5-(1H-tetrazol-5-yl)octahydroquinolin-1(2H)-yl]butan-1-one] as the compound, how does the pIC50 read?
Answer: < 6.60

Question: With CC(CC(=O)N1CCCC2C(C(=O)O)CCCC21)c1c[nH]c2cccc(C3CC3)c12 (stereo not shown) [Compound 190, 1-[3-(4-cyclopropyl-1H-Indol-3-yl)butanoyl]decahydroquinoline-5-carboxylic acid] as the compound, how does the pIC50 read?
Answer: > 7.00

Question: How did the pIC50 turn out when Cn1cc(C(C)(C)C(=O)N2CCCC3CCCCC32)c2ccccc21 (stereo not shown) [Compound 2, 2-methyl-2-(1-methyl-1H-indol-3-yl)-1-(octahydroquinolin-1(2H)-yl)propan-1-one] was run?
Answer: < 6.60

Question: With COC12CCCCC1N(C(=O)CC(C)c1c[nH]c3ncccc13)CCC2 (stereo not shown) [Example 153, 1-(4a-methoxyoctahydroquinolin-1(2H)-yl)-3-(1H-pyrrolo[2,3-b]pyridin-3-yl)butan-1-one] as the compound, how does the pIC50 read?
Answer: 6.70 to 6.82

Question: How did the pIC50 turn out when N#CC(CC(=O)N1CCCC2CCCCC21)c1c[nH]c2ccccc12 (stereo not shown) [Example 109, 2-(1H-indol-3-yl)-4-(octahydroquinolin-1(2H)-yl)-4-oxobutanenitrile] was run?
Answer: < 6.60

Question: Cc1[nH]c2ccccc2c1CCC(=O)N1CCCC2CCCCC21 (stereo not shown) [Compound 17, 3-(2-methyl-1H-indol-3-yl)-1-(octahydroquinolin-1(2H)-yl)propan-1-one] was tested. Which pIC50 did it give?
Answer: > 7.00
